Data: patent US12180155B2, “Crystalline forms of a cannabinoid receptor type 1 (CB1) modulator and methods of use and preparation thereof” (Anebulo Pharmaceuticals, Inc., priority 2021, dated 2024)

Key:
Assay type in all cases: physicochemical
[1] = Competitive slurries of Crystalline Form I and Crystalline Form II; settings: for conversion of equimolar Form I / Form II slurry to this form: XRPD of solids
Protocol: The relationship between Crystalline Form I and Crystalline Form II of Compound 1 was investigated via competitive slurries and solubility determination.
Equimolar amounts of the Crystalline Form I and Crystalline Form II were suspended in saturated solution of compound 1 and aged in different conditions. Slurry samples were taken at intervals, solids were filtered, dried and analyzed by XRPD. Two temperatures, 20° C. and 40° C., and two different solvent systems, heptane and a mixture of ethanol and water, were investigated.

[2] = Thermogravimetric analysis (TGA); settings: up to 150° C.
From the text: (§1) TGA: Polymorphs according to the present disclosure may also give rise to thermal behavior different from that of the amorphous material or another polymorphic form. Thermal behavior may be measured in the laboratory by thermogravimetric analysis (TGA) which may be used to distinguish some polymorphic forms from others. In one aspect, the polymorphs as described herein may be characterized by thermogravimetric analysis.
The TGA trace of Crystalline Form I of (R)—N-(tert-butyl)-3-((4-chlorophenyl)(2-(trifluoromethyl)phenyl)methoxy)azetidine-1-carboxamide (compound 1) is reported in FIG. 3.
The TGA trace of Crystalline Form II of (R)—N-(tert-butyl)-3-((4-chlorophenyl)(2-(trifluoromethyl)phenyl)methoxy)azetidine-1-carboxamide (compound 1) is reported in FIG. 7.

[3] = Stability at solid state (XRPD re-analysis after storage)
[4] = Dynamic vapor sorption (DVS); settings: for weight gain from dryness to 90% RH: second adsorption cycle
From the text: as §1, with “DVS:” for “TGA:”, “vapors sorption” for “thermal”, “The vapor sorption” for “Thermal”, “dynamic vapor sorption (DVS)” for “thermogravimetric analysis (TGA)”, “dynamic vapor sorption.” for “thermogravimetric analysis.”
The DVS trace of Crystalline Form I of (R)—N-(tert-butyl)-3-((4-chlorophenyl)(2-(trifluoromethyl)phenyl)methoxy)azetidine-1-carboxamide (compound 1) is reported in FIG. 4.
The DVS trace of Crystalline Form I of (R)—N-(tert-butyl)-3-((4-chlorophenyl)(2-(trifluoromethyl)phenyl)methoxy)azetidine-1-carboxamide (compound 1) is reported in FIG. 8.

[5] = Temperature dependent solubility in heptane (Crystal16, clear points); settings: for temperature at which the two solubility lines intersect / relative solubility: heptane; for temperature at which the two solubility lines intersect: Form I vs Form II
Protocol: Temperature dependent solubility experiment was performed on Crystalline Form I and Crystalline Form II of Compound 1, and data was generated by Crystal16 equipment using heptane as solvent. Slurries with accurate amounts of solid in heptane were prepared, equilibrated at 20° C. for 5 minutes then heated to 70° C. at a rate of 5° C./min, and the turbidity of the suspensions were measured. Clear points of the solutions were determined and solubility vs. temperature curves (Arrhenius plots: ln[conc.] vs. 1/T [° K]) were obtained, as shown in FIG. 9.

conversion of equimolar Form I / Form II slurry to this form ([1]; 40° C.)	weight loss [2] [%]	XRPD pattern after storage with respect to initial XRPD pattern ([3]; 5 weeks of storage at laboratory conditions)	weight gain from dryness to 90% RH [4] [%]	temperature at which the two solubility lines intersect [5]	relative solubility ([5]; temperature greater than 40° C.)	relative stability ([5]; temperatures greater than 40° C.)	conversion of equimolar Form I / Form II slurry to this form ([1]; 20° C., heptane and ethanol/water)	relative polymorph stability ([1]; room temperature (20-21° C.))	XRPD pattern after storage with respect to initial XRPD pattern ([3]; 8 weeks of storage at laboratory conditions)	hygroscopic behavior ([4]; dryness to 90% RH)	relative solubility ([5]; temperature less than 39° C.)	relative stability ([5]; temperatures less than 39° C.)	SMILES
slow but complete conversion	< 0.1	did not show significant differences	0.4	about 39 °C	less than that of Crystalline Form II	more stable							CC(C)(C)NC(=O)N1CC(O[C@H](c2ccc(Cl)cc2)c2ccccc2C(F)(F)F)C1 [Crystalline Form I, (R)—N-(tert-butyl)-3-((4-chlorophenyl)(2-(trifluoromethyl)phenyl)methoxy)azetidine-1-carboxamide]
	< 0.1		< 0.1	about 39 °C			complete conversion	most stable polymorph form	did not show significant differences	non-hygroscopic behavior	less than that of Crystalline Form I	more stable	CC(C)(C)NC(=O)N1CC(O[C@H](c2ccc(Cl)cc2)c2ccccc2C(F)(F)F)C1 [Crystalline Form II, (R)—N-(tert-butyl)-3-((4-chlorophenyl)(2-(trifluoromethyl)phenyl)methoxy)azetidine-1-carboxamide]
